Assay results taken from ChEMBL document CHEMBL1129336, “Ryanodine action at calcium release channels. 2. relation to substituents of the cyclohexane ring” (J Med Chem, 1996).

These molecules were tested against Ryanodine receptor 2 (Mus musculus) (UniProt E9Q401) (assay: Displacement of [3H]ryanodine from ryanodine receptor(ryr) of Mouse brain).
Chain of Ryanodine receptor 2 (Mus musculus) (E9Q401 whole entry, looked up): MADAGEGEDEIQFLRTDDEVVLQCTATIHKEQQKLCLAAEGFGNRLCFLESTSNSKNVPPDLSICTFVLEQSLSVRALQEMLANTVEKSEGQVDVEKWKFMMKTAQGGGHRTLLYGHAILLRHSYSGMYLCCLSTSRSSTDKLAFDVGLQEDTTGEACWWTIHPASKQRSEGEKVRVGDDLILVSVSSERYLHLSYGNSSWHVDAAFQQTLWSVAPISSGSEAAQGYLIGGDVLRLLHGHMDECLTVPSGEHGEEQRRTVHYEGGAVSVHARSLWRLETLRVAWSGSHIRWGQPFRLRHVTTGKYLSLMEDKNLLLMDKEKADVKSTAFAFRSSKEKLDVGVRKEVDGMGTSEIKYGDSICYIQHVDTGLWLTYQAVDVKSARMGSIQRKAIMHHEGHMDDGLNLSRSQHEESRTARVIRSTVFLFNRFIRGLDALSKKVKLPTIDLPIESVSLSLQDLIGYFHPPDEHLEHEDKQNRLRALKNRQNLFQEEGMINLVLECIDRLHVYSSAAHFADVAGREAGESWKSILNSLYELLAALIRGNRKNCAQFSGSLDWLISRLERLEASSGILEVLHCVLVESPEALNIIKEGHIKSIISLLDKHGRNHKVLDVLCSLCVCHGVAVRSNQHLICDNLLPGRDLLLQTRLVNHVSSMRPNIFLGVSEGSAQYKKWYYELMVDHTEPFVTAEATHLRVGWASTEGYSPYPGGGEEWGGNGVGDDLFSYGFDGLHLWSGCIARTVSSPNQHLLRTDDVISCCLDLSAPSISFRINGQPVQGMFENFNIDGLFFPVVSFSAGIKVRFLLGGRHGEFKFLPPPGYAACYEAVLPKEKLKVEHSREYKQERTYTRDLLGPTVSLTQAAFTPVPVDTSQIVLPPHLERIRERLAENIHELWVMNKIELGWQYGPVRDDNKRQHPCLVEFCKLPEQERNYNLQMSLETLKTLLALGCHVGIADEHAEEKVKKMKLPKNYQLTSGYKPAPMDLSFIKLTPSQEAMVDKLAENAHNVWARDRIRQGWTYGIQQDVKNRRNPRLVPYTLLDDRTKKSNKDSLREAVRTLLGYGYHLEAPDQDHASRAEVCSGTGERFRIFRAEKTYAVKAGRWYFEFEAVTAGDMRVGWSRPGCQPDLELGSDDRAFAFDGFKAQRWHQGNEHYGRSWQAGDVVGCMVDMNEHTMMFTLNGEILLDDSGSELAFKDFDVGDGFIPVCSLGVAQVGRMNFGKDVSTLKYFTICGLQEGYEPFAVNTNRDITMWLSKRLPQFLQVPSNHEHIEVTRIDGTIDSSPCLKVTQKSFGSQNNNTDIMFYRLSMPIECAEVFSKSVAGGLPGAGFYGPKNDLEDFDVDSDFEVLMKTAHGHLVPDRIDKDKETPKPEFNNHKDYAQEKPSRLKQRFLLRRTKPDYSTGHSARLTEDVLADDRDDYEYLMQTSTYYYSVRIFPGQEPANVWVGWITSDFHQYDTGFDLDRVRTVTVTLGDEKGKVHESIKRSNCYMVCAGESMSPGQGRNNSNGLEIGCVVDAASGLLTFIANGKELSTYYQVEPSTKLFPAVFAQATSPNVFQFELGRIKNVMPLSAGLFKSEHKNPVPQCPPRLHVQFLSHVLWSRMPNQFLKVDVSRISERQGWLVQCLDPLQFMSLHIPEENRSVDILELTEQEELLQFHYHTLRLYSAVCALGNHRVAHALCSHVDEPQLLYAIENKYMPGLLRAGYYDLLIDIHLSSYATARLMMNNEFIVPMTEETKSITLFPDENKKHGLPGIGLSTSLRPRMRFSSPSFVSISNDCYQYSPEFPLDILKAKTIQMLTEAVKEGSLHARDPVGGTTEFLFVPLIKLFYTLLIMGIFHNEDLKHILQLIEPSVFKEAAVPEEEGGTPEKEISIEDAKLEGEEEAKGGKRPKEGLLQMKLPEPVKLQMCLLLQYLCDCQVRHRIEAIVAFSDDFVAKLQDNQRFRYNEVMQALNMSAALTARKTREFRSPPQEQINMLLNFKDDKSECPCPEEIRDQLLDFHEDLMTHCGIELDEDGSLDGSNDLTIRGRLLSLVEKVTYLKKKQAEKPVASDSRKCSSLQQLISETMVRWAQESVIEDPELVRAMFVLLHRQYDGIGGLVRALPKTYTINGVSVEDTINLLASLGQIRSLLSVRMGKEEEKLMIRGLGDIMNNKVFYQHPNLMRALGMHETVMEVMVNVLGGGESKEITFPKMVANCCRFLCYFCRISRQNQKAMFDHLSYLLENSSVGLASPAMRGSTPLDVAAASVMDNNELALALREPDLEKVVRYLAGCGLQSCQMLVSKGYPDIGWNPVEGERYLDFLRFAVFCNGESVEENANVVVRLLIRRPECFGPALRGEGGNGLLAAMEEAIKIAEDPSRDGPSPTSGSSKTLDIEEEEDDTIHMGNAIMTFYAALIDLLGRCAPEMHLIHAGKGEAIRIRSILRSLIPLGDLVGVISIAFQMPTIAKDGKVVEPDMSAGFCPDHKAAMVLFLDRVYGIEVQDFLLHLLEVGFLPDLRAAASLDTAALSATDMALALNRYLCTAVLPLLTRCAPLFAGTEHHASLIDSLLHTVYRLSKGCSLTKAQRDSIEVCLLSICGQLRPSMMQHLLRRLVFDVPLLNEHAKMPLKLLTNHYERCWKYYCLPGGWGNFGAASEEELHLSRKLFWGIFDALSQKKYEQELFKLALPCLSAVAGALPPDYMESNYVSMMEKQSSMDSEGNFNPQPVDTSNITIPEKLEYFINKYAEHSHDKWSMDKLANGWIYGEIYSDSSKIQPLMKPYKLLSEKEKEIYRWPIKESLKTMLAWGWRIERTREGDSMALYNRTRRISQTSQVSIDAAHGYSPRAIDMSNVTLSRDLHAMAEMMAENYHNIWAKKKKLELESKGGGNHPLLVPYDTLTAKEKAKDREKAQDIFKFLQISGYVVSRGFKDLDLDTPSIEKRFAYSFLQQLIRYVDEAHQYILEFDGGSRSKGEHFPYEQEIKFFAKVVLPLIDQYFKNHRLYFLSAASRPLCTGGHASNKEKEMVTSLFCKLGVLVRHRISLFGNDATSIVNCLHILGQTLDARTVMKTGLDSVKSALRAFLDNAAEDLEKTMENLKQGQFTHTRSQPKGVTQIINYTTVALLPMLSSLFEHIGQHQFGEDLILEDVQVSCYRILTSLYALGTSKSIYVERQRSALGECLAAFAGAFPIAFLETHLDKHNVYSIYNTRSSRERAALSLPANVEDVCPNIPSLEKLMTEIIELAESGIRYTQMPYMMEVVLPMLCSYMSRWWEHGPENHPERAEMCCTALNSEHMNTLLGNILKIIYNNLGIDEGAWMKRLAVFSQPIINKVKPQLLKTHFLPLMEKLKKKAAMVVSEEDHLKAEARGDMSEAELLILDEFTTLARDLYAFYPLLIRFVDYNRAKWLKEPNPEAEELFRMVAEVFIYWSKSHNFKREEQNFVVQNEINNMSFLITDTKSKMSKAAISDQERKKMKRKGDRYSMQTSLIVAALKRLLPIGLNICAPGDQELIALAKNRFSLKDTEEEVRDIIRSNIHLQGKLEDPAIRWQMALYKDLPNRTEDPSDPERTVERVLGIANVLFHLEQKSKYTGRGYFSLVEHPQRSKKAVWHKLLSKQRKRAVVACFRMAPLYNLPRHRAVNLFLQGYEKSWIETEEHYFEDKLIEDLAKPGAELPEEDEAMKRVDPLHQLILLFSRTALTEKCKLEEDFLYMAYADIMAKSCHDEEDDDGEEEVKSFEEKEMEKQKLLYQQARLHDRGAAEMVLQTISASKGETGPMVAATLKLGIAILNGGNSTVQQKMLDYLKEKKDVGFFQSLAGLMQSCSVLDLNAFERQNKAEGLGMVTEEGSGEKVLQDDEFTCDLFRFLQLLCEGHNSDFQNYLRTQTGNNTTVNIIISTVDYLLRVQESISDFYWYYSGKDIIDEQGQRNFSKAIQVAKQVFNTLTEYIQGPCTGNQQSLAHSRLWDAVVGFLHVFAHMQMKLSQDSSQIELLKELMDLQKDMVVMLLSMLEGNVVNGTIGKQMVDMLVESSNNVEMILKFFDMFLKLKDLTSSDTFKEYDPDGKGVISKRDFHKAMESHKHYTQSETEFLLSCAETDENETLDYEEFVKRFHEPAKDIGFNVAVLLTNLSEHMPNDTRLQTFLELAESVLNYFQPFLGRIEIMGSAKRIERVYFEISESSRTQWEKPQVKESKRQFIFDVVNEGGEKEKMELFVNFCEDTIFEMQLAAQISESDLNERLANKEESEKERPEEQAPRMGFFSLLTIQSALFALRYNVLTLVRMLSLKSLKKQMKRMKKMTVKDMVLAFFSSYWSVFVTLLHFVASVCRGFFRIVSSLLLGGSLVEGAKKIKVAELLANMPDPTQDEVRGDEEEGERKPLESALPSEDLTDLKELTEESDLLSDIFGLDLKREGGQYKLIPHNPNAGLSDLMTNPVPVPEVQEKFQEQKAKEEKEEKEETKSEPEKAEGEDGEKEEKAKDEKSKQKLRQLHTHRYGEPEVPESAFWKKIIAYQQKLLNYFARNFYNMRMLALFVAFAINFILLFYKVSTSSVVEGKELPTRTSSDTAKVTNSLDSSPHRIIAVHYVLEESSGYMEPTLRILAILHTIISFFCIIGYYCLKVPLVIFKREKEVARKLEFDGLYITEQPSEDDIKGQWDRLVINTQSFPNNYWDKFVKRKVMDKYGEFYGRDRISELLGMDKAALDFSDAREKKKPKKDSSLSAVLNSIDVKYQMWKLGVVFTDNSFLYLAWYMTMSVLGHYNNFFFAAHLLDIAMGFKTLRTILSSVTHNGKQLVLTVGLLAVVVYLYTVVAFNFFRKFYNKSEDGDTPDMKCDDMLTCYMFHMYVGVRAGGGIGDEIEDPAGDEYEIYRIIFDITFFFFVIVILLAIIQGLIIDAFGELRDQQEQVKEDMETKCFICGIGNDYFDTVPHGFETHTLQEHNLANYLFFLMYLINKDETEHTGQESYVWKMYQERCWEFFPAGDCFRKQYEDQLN
For `CC1CCC2(O)C3(C)CC4(O)OC2(C1N)C1(O)C3(O)C(OC(=O)c2ccc[nH]2)C(O)(C(C)C)C41C` (stereo not given), the Relative activity was 65. `CC(C)C1(O)C(OC(=O)c2ccc[nH]2)C2(O)C3(C)CC4(O)OC5(CC(O)CCC35O)C2(O)C41C` (stereo not given) showed a Relative activity of 0.4. Work on `CO/N=C1\C(C)CCC2(O)C3(C)CC4(O)OC12C1(O)C3(O)C(OC(=O)c2ccc[nH]2)C(O)(C(C)C)C41C` (stereo not given) yielded a Relative activity of 13. `C=C1CCC2(O)C3(C)CC4(O)OC2(C1OC(=O)c1ccccc1)C1(O)C3(O)C(OC(=O)c2ccc[nH]2)C(O)(C(C)C)C41C` (stereo not given) was tested, and the Relative activity was 17. In the case of `CC(C)C1(O)C(OC(=O)c2ccc[nH]2)C2(O)C3(C)CC4(O)OC5(CCCCC35O)C2(O)C41C` (stereo not given), the Relative activity is reported as 18.
